Test results published in patent US11401278B2, “Macrocyclic indole derivatives” (The Broad Institute, Inc., priority 2017, dated 2022).
Counter-ions that a name gives are not always drawn.

molecular target: MCL-1 (Homo sapiens (Human), UniProt Q07820, K194A/K197A/R201A); experiment: Protein-protein interaction assay MCL-1/Noxa BH3 peptide (MCL-1 assay, TR-FRET); assay type: binding; details: MBP-MCL-1 / Noxa BH3 peptide, median
Outline: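 TR-FRET competition assay read at 665/620 nm, with a Noxa BH3 tracer peptide (1 nM) plus Eu-cryptate anti-MBP and XL665-streptavidin. Compounds (0.1 nM-20 μM, duplicates) were pre-equilibrated 10 min at 22° C with 1 nM MBP-MCL-1 (173-329) in Tris pH 7, NaCl, KF, DTT buffer, then incubated 1 h at 22° C and overnight at 4° C. IC50 came from 4-parameter regression.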

Chain of MCL-1 (Q07820 whole entry K194A/K197A/R201A, looked up): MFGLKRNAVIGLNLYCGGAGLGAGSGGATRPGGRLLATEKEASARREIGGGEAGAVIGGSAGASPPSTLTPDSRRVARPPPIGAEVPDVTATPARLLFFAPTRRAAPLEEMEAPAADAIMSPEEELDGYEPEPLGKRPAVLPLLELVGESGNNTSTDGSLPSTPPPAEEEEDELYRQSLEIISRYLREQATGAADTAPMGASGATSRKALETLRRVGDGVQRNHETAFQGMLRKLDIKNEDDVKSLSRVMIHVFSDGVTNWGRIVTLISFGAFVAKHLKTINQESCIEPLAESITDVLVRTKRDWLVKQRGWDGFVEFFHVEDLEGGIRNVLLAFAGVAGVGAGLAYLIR

| SMILES | IC50 [nM] |
| --- | --- |
| Cc1c2c(nn1C)CN(CCN1CCOCC1)S(=O)(=O)CCCn1c(C(=O)O)c(CCCOc3cccc4ccccc34)c3cccc-2c31 (racemic) [Example 1, (rac)-2,3-Dimethyl-14-[2-(morpholin-4-yl)ethyl]-7-{3-[(naphthalen-1-yl)oxy]propyl}-13,13-dioxo-10,11,12,13,14,15-hexahydro-2H-13λ^6-pyrazolo[3′,4′:4,5][1,2,8]thiadiazacycloundecino-[6,7,8-hi]indole-8-carboxylic acid] | 6.2 |
| Cc1c2c(nn1C)CN(C)S(=O)(=O)CCCn1c(C(=O)O)c(CCCOc3cccc4ccccc34)c3ccc(Cl)c-2c31 (racemic) [Example 4, (rac)-4-Chloro-2,3,14-trimethyl-7-{3-[(naphthalen-1-yl)oxy]propyl}-13,13-dioxo-10,11,12,13,14,15-hexahydro-2H-13λ^6-pyrazolo[3′,4′:4,5][1,2,8]thiadiazacycloundecino-[6,7,8-hi]indole-8-carboxylic acid] | 1.2 |
| CCc1c2c(nn1C)CN(C)S(=O)(=O)CCCn1c(C(=O)O)c(CCCOc3cccc4cc(F)ccc34)c3ccc(F)c-2c31 (racemic) [Example 7, (rac)-12-Ethyl-13-fluoro-1-(3-((6-fluoronaphthalen-1-yl)oxy)propyl)-8,11-dimethyl-5,6,9,11-tetrahydro-4H,8H-pyrazolo[3′,4′:4,5][1]thia[2,8]diazacycloundecino[6,7,8-hi]indole-2-carboxylic acid 7,7-dioxide] | 1.3 |
| CCc1c2c(nn1C)CN(CCCN1CCCC1=O)S(=O)(=O)CCCn1c(C(=O)O)c(CCCOc3cccc4ccccc34)c3cccc-2c31 (racemic) [Example 13, (rac)-12-Ethyl-11-methyl-1-(3-(naphthalen-1-yloxy)propyl)-8-(3-(2-oxopyrrolidin-1-yl)propyl)-5,6,9,11-tetrahydro-4H,8H-pyrazolo[3′,4′:4,5][1]thia[2,8]diazacycloundecino[6,7,8-hi]indole-2-carboxylic acid 7,7-dioxide] | 6.3 |
| CCc1c2c(nn1C)CN(CCN1CCCCC1)S(=O)(=O)CCCn1c(C(=O)O)c(CCCOc3cccc4ccccc34)c3cccc-2c31 (racemic) [Example 14, (rac)-12-Ethyl-11-methyl-1-(3-(naphthalen-1-yloxy)propyl)-8-(2-(piperidin-1-yl)ethyl)-4,5,6,8,9,11-hexahydropyrazolo[3′,4′:4,5][1,2,8]thiadiazacycloundecino[6,7,8-hi]indole-2-carboxylic acid 7,7-dioxide 2,2,2-trifluoroacetic acid salt] | 9.8 |
| CCc1c2c(nn1C)CN(CCCN1CCOCC1)S(=O)(=O)CCCn1c(C(=O)O)c(CCCOc3cccc4ccccc34)c3cccc-2c31 (racemic) [Example 15, (rac)-12-Ethyl-11-methyl-8-(3-morpholinopropyl)-1-(3-(naphthalen-1-yloxy)propyl)-4,5,6,8,9,11-hexahydropyrazolo[3′,4′:4,5][1,2,8]thiadiazacycloundecino[6,7,8-hi]indole-2-carboxylic acid 7,7-dioxide 2,2,2-trifluoroacetic acid salt] | 5.6 |
| CCc1c2c(nn1C)CN(CCCN1CCCC1)S(=O)(=O)CCCn1c(C(=O)O)c(CCCOc3cccc4ccccc34)c3cccc-2c31 (racemic) [Example 16, (rac)-12-Ethyl-11-methyl-1-(3-(naphthalen-1-yloxy)propyl)-8-(3-(pyrrolidin-1-yl)propyl)-5,6,9,11-tetrahydro-4H,8H-pyrazolo[3′,4′:4,5][1]thia[2,8]diazacycloundecino[6,7,8-hi]indole-2-carboxylic acid 7,7-dioxide] | 5.7 |
| CCc1c2c(nn1C)CNS(=O)(=O)CCCn1c(C(=O)O)c(CCCOc3cccc4ccccc34)c3cccc-2c31 (racemic) [Example 17, (rac)-12-Ethyl-11-methyl-1-(3-(naphthalen-1-yloxy)propyl)-4,5,6,8,9,11-hexahydropyrazolo[3′,4′:4,5][1,2,8]thiadiazacycloundecino[6,7,8-hi]indole-2-carboxylic acid 7,7-dioxide] | 8.1 |
| Cc1c2c(nn1C)CN(C1CC1)S(=O)(=O)CCCn1c(C(=O)O)c(CCCOc3cccc4cc(F)ccc34)c3ccc(Cl)c-2c31 (racemic) [Example 41, (rac)-4-chloro-14-cyclopropyl-7-{3-[(6-fluoro-1-naphthyl)oxy]propyl}-2,3-dimethyl-11,12,14,15-tetrahydro-2H,10H-pyrazolo[3′,4′:4,5][1,2,8]thiadiazacycloundecino[6,7,8-hi]indole-8-carboxylic acid 13,13-dioxide] | 1.3 |

Now from value to compound:

| IC50 [nM] | SMILES |
| --- | --- |
| 7.8 | CCc1c2c(nn1C)C(C)N(C)S(=O)(=O)CCCn1c(C(=O)O)c(CCCOc3cccc4ccccc34)c3cccc-2c31 (racemic) [Example 18, 12-Ethyl-8,9,11-trimethyl-1-(3-(naphthalen-1-yloxy)propyl)-5,6,9,11-tetrahydro-4H,8H-pyrazolo[3′,4′:4,5][1]thia[2,8]diazacycloundecino[6,7,8-hi]indole-2-carboxylic acid 7,7-dioxide (Mixture of Stereoisomers)] |
| 1.7 | Cc1c2c(nn1C)CN(C)S(=O)(=O)CCCn1c(C(=O)O)c(CCCOc3cccc4cc(F)ccc34)c3ccc(F)c-2c31 (racemic) [Example 25, (rac)-13-Fluoro-1-(3-((6-fluoronaphthalen-1-yl)oxy)propyl)-8,11,12-trimethyl-5,6,9,11-tetrahydro-4H,8H-pyrazolo[3′,4′:4,5][1]thia[2,8]diazacycloundecino[6,7,8-hi]indole-2-carboxylic acid 7,7-dioxide] |
| 3.6 | Cc1c2c(nn1C)CN(C)S(=O)(=O)CCCn1c(C(=O)O)c(CCCOc3cccc4ccccc34)c3ccc(F)c-2c31 (racemic) [Example 26, (rac)-13-Fluoro-8,11,12-trimethyl-1-(3-(naphthalen-1-yloxy)propyl)-5,6,9,11-tetrahydro-4H,8H-pyrazolo[3′,4′:4,5][1]thia[2,8]diazacycloundecino[6,7,8-hi]indole-2-carboxylic acid 7,7-dioxide] |
| 2.1 | Cc1c2c(nn1C)CN(C)S(=O)(=O)CCCn1c(C(=O)O)c(CCCOc3cccc4c3CCC4)c3ccc(F)c-2c31 (racemic) [Example 27, (rac)-1-(3-((2,3-Dihydro-1H-inden-4-yl)oxy)propyl)-13-fluoro-8,11,12-trimethyl-5,6,9,11-tetrahydro-4H,8H-pyrazolo[3′,4′:4,5][1]thia[2,8]diazacycloundecino[6,7,8-hi]indole-2-carboxylic acid 7,7-dioxide] |
| 4 | Cc1cc(OCCCc2c(C(=O)O)n3c4c(c(F)ccc24)-c2c(nn(C)c2C)CN(C)S(=O)(=O)CCC3)cc(C)c1Cl (racemic) [Example 28, (rac)-1-(3-(4-Chloro-3,5-dimethylphenoxy)propyl)-13-fluoro-8,11,12-trimethyl-5,6,9,11-tetrahydro-4H,8H-pyrazolo[3′,4′:4,5][1]thia[2,8]diazacycloundecino[6,7,8-hi]indole-2-carboxylic acid 7,7-dioxide] |
| 3.1 | Cc1c2c(nn1C)CN(C)S(=O)(=O)CCCn1c(C(=O)O)c(CCCOc3cccc4c3CCCC4)c3ccc(F)c-2c31 (racemic) [Example 29, (rac)-13-Fluoro-8,11,12-trimethyl-1-(3-((5,6,7,8-tetrahydronaphthalen-1-yl)oxy)propyl)-5,6,9,11-tetrahydro-4H,8H-pyrazolo[3′,4′:4,5][1]thia[2,8]diazacycloundecino[6,7,8-hi]indole-2-carboxylic acid 7,7-dioxide] |
| 3.6 | CCc1c2c(nn1C)CN(C)S(=O)(=O)CCCn1c(C(=O)O)c(CCCOc3cccc4ccccc34)c3ccc(F)c-2c31 (racemic) [Example 31, (rac)-12-Ethyl-13-fluoro-8,11-dimethyl-1-(3-(naphthalen-1-yloxy)propyl)-5,6,9,11-tetrahydro-4H,8H-pyrazolo[3′,4′:4,5][1]thia[2,8]diazacycloundecino[6,7,8-hi]indole-2-carboxylic acid 7,7-dioxide] |
| 1.5 | CCc1c2c(nn1C)CN(C)S(=O)(=O)CCCn1c(C(=O)O)c(CCCOc3cccc4c3CCC4)c3ccc(F)c-2c31 (racemic) [Example 32, (rac)-1-(3-((2,3-Dihydro-1H-inden-4-yl)oxy)propyl)-12-ethyl-13-fluoro-8,11-dimethyl-5,6,9,11-tetrahydro-4H,8H-pyrazolo[3′,4′:4,5][1]thia[2,8]diazacycloundecino[6,7,8-hi]indole-2-carboxylic acid 7,7-dioxide] |
| 4.2 | CCc1c2c(nn1C)CN(C)S(=O)(=O)CCCn1c(C(=O)O)c(CCCOc3cc(C)c(Cl)c(C)c3)c3ccc(F)c-2c31 (racemic) [Example 33, (rac)-1-(3-(4-Chloro-3,5-dimethylphenoxy)propyl)-12-ethyl-13-fluoro-8,11-dimethyl-5,6,9,11-tetrahydro-4H,8H-pyrazolo[3′,4′:4,5][1]thia[2,8]diazacycloundecino[6,7,8-hi]indole-2-carboxylic acid 7,7-dioxide] |
| 3.2 | CCc1c2c(nn1C)CN(C)S(=O)(=O)CCCn1c(C(=O)O)c(CCCOc3cccc4c3CCCC4)c3ccc(F)c-2c31 (racemic) [Example 34, (rac)-12-Ethyl-13-fluoro-8,11-dimethyl-1-(3-((5,6,7,8-tetrahydronaphthalen-1-yl)oxy)propyl)-5,6,9,11-tetrahydro-4H,8H-pyrazolo[3′,4′:4,5][1]thia[2,8]diazacycloundecino[6,7,8-hi]indole-2-carboxylic acid 7,7-dioxide] |
| 3.5 | CCc1c2c(nn1C)CN(C)S(=O)(=O)CCCn1c(C(=O)O)c(CCCOc3ccc(F)c4ccccc34)c3ccc(F)c-2c31 (racemic) [Example 35, (rac)-12-Ethyl-13-fluoro-1-(34(4-fluoronaphthalen-1-yl)oxy)propyl)-8,11-dimethyl-5,6,9,11-tetrahydro-4H,8H-pyrazolo[3′,4′:4,5][1]thia[2,8]diazacycloundecino[6,7,8-hi]indole-2-carboxylic acid 7,7-dioxide] |
